Assay results taken from PMC11405051, “HLA A*24:02–restricted T cell receptors cross-recognize bacterial and preproinsulin peptides in type 1 diabetes” (The Journal of Clinical Investigation, 2024).
pEC50: −log10 of the molar value.

Legend:
[1] = system: 4C6 T cell clone; assay: Peptide titration activation assay of 4C6 T cell clone, MIP-1β ELISA; type: cell-based, human; conditions: duplicate conditions
Method: 4C6 T-cells were rested overnight in R5 media (as for R10 but with 5% FBS) to reduce
spontaneous activation, followed by incubation in the presence of C1R-HLA A*24:02, with peptide mixtures
of defined length and random amino acid sequence (X8-14 in which X is any of the 20 proteogenic L-amino
acids, excluding cysteine) in R5 media overnight at 37°C and 5% CO2. MIP-1β production was measured by
enzyme-linked immunosorbent assay (ELISA, R&D Systems, Bio-Techne, Minneapolis, MN, US) as a proxy
for T cell activation as previously described (22). Peptide mixtures were synthesised at >40% purity
(Pepscan Presto, Lelystad, Netherlands) and stored at -80°C in DMSO at 40 mM. Mixtures were used in
assays at a concentration of 1 mM. Following conformation of the preference of 4C6 T-cells for 9-mer
peptides, nonamer PS-CPL screening was performed using libraries synthesised at >40% purity as
described previously (22, 23, 43). Libraries were stored at -80°C in DMSO at 20 mM. For assays, 6×104
C1R-HLA A*24:02 were pulsed with 100 μM of each CPL library mixture for 2 h at 37°C. Following this,
3×10^4 4C6 T cells were co-incubated with the pulsed C1R-HLA A*24:02 cells overnight at 37°C and 5% CO2.
Assay conditions were performed in duplicate. Supernatants were harvested the following morning and
assayed for the presence of MIP-1β, as above, by ELISA.
universe with bias toward good agonists.

[2] = system: tetramer-enriched T cell lines from HLA A*24+ healthy donors; assay: Tetramer staining of tetramer-enriched T cell lines from HLA A*24+ healthy donors; type: cell-based, human
Method: The 4C6 T-cell clone was rested overnight in R5 media, as above then incubated with antigen presenting
cells, with 3 x104 4C6 T-cells and 6 x10^4 antigen presenting cells per well of a 96U well plate. The cells were
incubated overnight in R5 media at 37°C and 5% CO2, with all conditions performed in triplicate.
Supernatants were harvested and MIP-1β or TNF production measured by enzyme-linked immunosorbent
assay (ELISA, R&D Systems, Bio-Techne, Minneapolis, MN, US). Experiment 1 used C1R cells +/- HLA
A*24:02 +/- IGF2BP2 (irrelevant control), gsiA or fes genes. Experiment 2 used THP-1 and A549 cells: WT
and + HLA A*A24:02 +/- gsiA or fes genes. PHA (10 μg/mL) as a positive control and exogenous Klebsiella
peptides at 10 μM for comparison were also included. MIP-1β or TNF values for 4C6 T-cells or antigen
presenting cells incubated alone were subtracted during analysis.

[3] = Supplementary Figure 5, 60 biased-sampling peptides and index, 4C6 overnight with C1R-HLA A24:02, MIP-1β ELISA

| Sequence | pEC50 [1, 3] | other results |
| --- | --- | --- |
| AHPPLFNVM [9-mer drawn by CPL-biased importance sampling] | < 5.00 |  |
| ALMRLFSLF [9-mer drawn by CPL-biased importance sampling] | < 5.00 |  |
| AYAAAAAAL [irrelevant HLA A*24:02 peptide used in control tetramers] |  | % tetramer+ ([2]; CMV […] tetramer-enriched line, donor 572D, single-staining): 0%; % tetramer+ ([2]; CMV […] tetramer-enriched line, donor BB25, single-staining): 0.05%; % tetramer+ ([2]; CMV […] tetramer-enriched line, donor BB31, single-staining): 0.05%; % tetramer+ ([2]; CMV […] tetramer-enriched line, donor BB51, single-staining): 0.1%; % tetramer+ ([2]; CMV […] tetramer-enriched line, donor BB52, single-staining): 0.04%; % tetramer+ ([2]; CMV […] tetramer-enriched line, donor BB57, single-staining): 0.02%; % tetramer+ ([2]; CMV […] tetramer-enriched line, donor BB64, single-staining): 0.3%; % tetramer+ ([2]; Kleb SLPRLFPLL tetramer-enriched line, donor 572D, single-staining): 0%; % tetramer+ ([2]; Kleb SLPRLFPLL tetramer-enriched line, donor BB25, single-staining): 0.03%; % tetramer+ ([2]; Kleb SLPRLFPLL tetramer-enriched line, donor BB31, single-staining): 0.5%; % tetramer+ ([2]; Kleb SLPRLFPLL tetramer-enriched line, donor BB51, single-staining): 0.1%; % tetramer+ ([2]; Kleb SLPRLFPLL tetramer-enriched line, donor BB52, single-staining): 0%; % tetramer+ ([2]; Kleb SLPRLFPLL tetramer-enriched line, donor BB57, single-staining): 0.06%; % tetramer+ ([2]; Kleb SLPRLFPLL tetramer-enriched line, donor BB64, single-staining): 0.4% |
| DHPPLFPMA [9-mer drawn by CPL-biased importance sampling] | < 5.00 |  |
| DKPRLVPVI [9-mer drawn by CPL-biased importance sampling] | < 5.00 |  |
| DLQRLVSVI [9-mer drawn by CPL-biased importance sampling] | < 5.00 |  |
| DMMPLLPII [9-mer drawn by CPL-biased importance sampling] | < 5.00 |  |
| DNPRLFGLT [9-mer drawn by CPL-biased importance sampling] | < 5.00 |  |
| DYQRLVNLL [9-mer drawn by CPL-biased importance sampling] | < 5.00 |  |
| ELPPLMSVW [9-mer drawn by CPL-biased importance sampling] | < 5.00 |  |
| EMQPLFGMV [9-mer drawn by CPL-biased importance sampling] | < 5.00 |  |
| ENMPLMPMI [9-mer drawn by CPL-biased importance sampling] | < 5.00 |  |
| EWQPLFSIA [9-mer drawn by CPL-biased importance sampling] | < 5.00 |  |
| EYMPLVGML [9-mer drawn by CPL-biased importance sampling] | < 5.00 |  |
| EYPPLLNIL [9-mer drawn by CPL-biased importance sampling] | < 5.00 |  |
| EYPPLVPIL [fungal peptide, Aspergillus niger, Unnamed protein product] |  | pEC50 ([1]; Supplementary Figure 6, top 20 fungal database peptides, 4C6 overnight with C1R HLA A*24:02, MIP-1β ELISA): < 5.00 |
| HYMPLFGVT [9-mer drawn by CPL-biased importance sampling] | < 5.00 |  |
| HYQPLVPVL [9-mer drawn by CPL-biased importance sampling] | < 5.00 |  |
| ILMPLMPMT [9-mer drawn by CPL-biased importance sampling] | < 5.00 |  |
| IWPPLVPVT [9-mer drawn by CPL-biased importance sampling] | < 5.00 |  |
| IWQPLAGVA [9-mer drawn by CPL-biased importance sampling] | < 5.00 |  |
| KNLPLVPII [9-mer drawn by CPL-biased importance sampling] | < 5.00 |  |
| KWLRLMPMM [9-mer drawn by CPL-biased importance sampling] | < 5.00 |  |
| LLMPLVGLW [9-mer drawn by CPL-biased importance sampling] | < 5.00 |  |
| LMMPLAPMM [9-mer drawn by CPL-biased importance sampling] | < 5.00 |  |

| Sequence | pEC50 [1, 3] | other results |
| --- | --- | --- |
| LYQPLVGMV [9-mer drawn by CPL-biased importance sampling] | < 5.00 |  |
| NHPRLVGVI [9-mer drawn by CPL-biased importance sampling] | < 5.00 |  |
| NKLRLVNIM [9-mer drawn by CPL-biased importance sampling] | < 5.00 |  |
| NLMRLMNLA [9-mer drawn by CPL-biased importance sampling] | < 5.00 |  |
| NWQPLVSIW [9-mer drawn by CPL-biased importance sampling] | < 5.00 |  |
| QHPPLASLI [9-mer drawn by CPL-biased importance sampling] | < 5.00 |  |
| QKLPLLGLL [9-mer drawn by CPL-biased importance sampling] | < 5.00 |  |
| QKQPLLPII [9-mer drawn by CPL-biased importance sampling] | < 5.00 |  |
| QKQRLASIL [9-mer drawn by CPL-biased importance sampling] | < 5.00 |  |
| QMLPLLPLF [9-mer drawn by CPL-biased importance sampling] | < 5.00 |  |
| QMPPLVNIM [9-mer drawn by CPL-biased importance sampling] | < 5.00 |  |
| QMQRLVNIV [9-mer drawn by CPL-biased importance sampling] | < 5.00 |  |
| QWPRLVNVF [9-mer drawn by CPL-biased importance sampling] | < 5.00 |  |
| QYLRLFNIT [9-mer drawn by CPL-biased importance sampling] | < 5.00 |  |
| RHMRLFGML [9-mer drawn by CPL-biased importance sampling] | < 5.00 |  |
| RLLPLVSVI [9-mer drawn by CPL-biased importance sampling] | < 5.00 |  |
| RLMPLVPVV [9-mer drawn by CPL-biased importance sampling] | < 5.00 |  |
| RNPPLVGIW [9-mer drawn by CPL-biased importance sampling] | < 5.00 |  |
| RYPPLVPML [9-mer drawn by CPL-biased importance sampling] | < 5.00 |  |
| SLLPLLGIL [9-mer drawn by CPL-biased importance sampling] | < 5.00 |  |
| SMMRLLPVW [9-mer drawn by CPL-biased importance sampling] | < 5.00 |  |
| SNMRLMPVV [9-mer drawn by CPL-biased importance sampling] | < 5.00 |  |
| SNPPLMGLM [9-mer drawn by CPL-biased importance sampling] | < 5.00 |  |
| SWLRLFNMM [9-mer drawn by CPL-biased importance sampling] | < 5.00 |  |
| SYPPLVGMV [9-mer drawn by CPL-biased importance sampling] | < 5.00 |  |
